The results in this text go back to US9926281B2 (priority 2014, dated 2018).

The target of one assay is rnADAMTS-5 (1-564-6H) (Rattus norvegicus, UniProt Q6TY19). As to conditions: read-out: Rat ADAMTS-5 potency IC50.
Another assay has as its target human ADAMTS-5 (Homo sapiens (Human), UniProt Q9UNA0). As to conditions: read-out: hADAMTS-5 potency IC50.
For a further assay, the target named is human TACE (Homo sapiens (Human), UniProt P78536). As to conditions: read-out: TACE potency IC50.
The target of the next assay is human MMP13 (Homo sapiens (Human), UniProt P45452). As to conditions: read-out: hMMP-13 potency IC50.

human TACE, sequence (P78536 whole entry, looked up, change not shown): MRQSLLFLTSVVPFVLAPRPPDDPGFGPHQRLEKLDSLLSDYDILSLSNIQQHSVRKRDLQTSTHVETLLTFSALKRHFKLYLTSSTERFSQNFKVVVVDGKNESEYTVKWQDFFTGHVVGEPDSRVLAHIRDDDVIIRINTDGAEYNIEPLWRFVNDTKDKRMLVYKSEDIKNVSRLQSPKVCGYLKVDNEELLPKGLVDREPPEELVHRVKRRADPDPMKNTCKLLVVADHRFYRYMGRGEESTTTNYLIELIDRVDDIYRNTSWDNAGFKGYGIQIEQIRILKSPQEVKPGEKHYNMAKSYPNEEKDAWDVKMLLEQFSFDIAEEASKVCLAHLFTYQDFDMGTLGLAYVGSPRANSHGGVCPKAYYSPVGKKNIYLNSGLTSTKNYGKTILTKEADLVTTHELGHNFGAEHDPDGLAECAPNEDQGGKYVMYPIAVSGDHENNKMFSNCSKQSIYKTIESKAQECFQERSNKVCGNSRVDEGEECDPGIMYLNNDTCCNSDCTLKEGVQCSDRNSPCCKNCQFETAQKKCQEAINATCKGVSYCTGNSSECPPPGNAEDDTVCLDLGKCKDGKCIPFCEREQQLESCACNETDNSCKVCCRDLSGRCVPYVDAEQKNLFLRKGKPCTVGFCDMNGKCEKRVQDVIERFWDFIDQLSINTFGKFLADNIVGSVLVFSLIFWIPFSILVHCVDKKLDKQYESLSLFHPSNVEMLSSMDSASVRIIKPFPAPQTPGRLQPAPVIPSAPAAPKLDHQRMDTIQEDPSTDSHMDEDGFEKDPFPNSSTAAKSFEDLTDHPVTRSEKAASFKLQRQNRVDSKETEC
human ADAMTS-5, sequence (Q9UNA0 262-930): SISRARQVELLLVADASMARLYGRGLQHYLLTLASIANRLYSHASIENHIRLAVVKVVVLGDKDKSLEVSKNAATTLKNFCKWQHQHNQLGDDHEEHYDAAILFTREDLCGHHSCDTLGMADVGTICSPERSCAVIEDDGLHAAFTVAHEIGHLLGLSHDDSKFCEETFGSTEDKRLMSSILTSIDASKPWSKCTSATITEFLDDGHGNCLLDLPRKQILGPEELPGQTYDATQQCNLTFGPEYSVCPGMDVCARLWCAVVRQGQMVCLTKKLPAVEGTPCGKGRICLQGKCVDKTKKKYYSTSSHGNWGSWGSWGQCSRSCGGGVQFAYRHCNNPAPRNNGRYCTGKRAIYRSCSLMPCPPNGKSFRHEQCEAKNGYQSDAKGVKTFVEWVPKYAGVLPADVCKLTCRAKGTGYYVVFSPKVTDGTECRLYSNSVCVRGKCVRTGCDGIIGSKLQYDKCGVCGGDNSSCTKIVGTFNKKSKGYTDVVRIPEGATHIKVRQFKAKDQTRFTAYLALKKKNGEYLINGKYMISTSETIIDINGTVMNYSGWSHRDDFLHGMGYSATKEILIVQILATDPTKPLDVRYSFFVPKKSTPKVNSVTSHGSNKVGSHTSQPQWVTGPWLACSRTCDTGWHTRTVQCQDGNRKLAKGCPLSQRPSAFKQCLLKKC
Experimental for human MMP13: Human MMP13 is preactivated by incubated the enzyme in the same buffer complemented with 1 mM freshly prepared p-Aminophenylmercuric acetate (AMPA) for 1 hour at 37° C.

On to `O=C1NC(=O)C(CCC(=O)N2CCN(c3ccc(Cl)cc3)CC2)(c2ccccc2)N1` (stereo not shown) [compound 5, 5-[3-[4-(4-chlorophenyl)piperazin-1-yl]-3-oxo-propyl]-5-phenyl-imidazolidine-2,4-dione], for which the IC50 at rnADAMTS-5 (1-564-6H) was 101 nM; on human ADAMTS-5, 78 nM; on human TACE, over 3330 nM.
With `O=C1NC(=O)C(CCC(=O)N2CCN(c3ccc4ccccc4n3)CC2)(c2ccccc2)N1` (stereo not shown) [compound 15, 5-[3-oxo-3-[4-(2-quinolyl)piperazin-1-yl]propyl]-5-phenyl-imidazolidine-2,4-dione], the 50% inhibitory concentration (IC50) at rnADAMTS-5 (1-564-6H) and at human ADAMTS-5 was over 4000 nM each time.
With `Cc1cccc(C)c1N1CCN(C(=O)CCC2(c3ccccc3)NC(=O)NC2=O)CC1` (stereo not shown) [compound 22, 5-[3-[4-(2,6-dimethylphenyl)piperazin-1-yl]-3-oxo-propyl]-5-phenyl-imidazolidine-2,4-dione], the IC50 is 3900 nM at rnADAMTS-5 (1-564-6H) and over 3790 nM at human ADAMTS-5.
As to `Cc1cc(N2CCN(C(=O)CCC3(c4ccccc4)NC(=O)NC3=O)CC2)ccc1[N+](=O)[O-]` (stereo not shown) [compound 23, 5-[3-[4-(3-methyl-4-nitro-phenyl)piperazin-1-yl]-3-oxo-propyl]-5-phenyl-imidazolidine-2,4-dione], the concentration for half-maximal inhibition (IC50) on rnADAMTS-5 (1-564-6H) turned out to be 158 nM; on human ADAMTS-5, 157 nM.
In the case of `Cc1c(F)cccc1N1CCN(C(=O)CCC2(C)NC(=O)NC2=O)CC1` (stereo not shown) [compound 60, 5-[3-[4-(3-fluoro-2-methyl-phenyl)piperazin-1-yl]-3-oxo-propyl]-5-methyl-imidazolidine-2,4-dione], the IC50 is over 20000 nM at human MMP13, 1160 nM on human ADAMTS-5 and over 20000 nM on human TACE.
In the case of `CC1(CCC(=O)N2CCN(c3ccc(Cl)c(Cl)c3)CC2)NC(=O)NC1=O` (stereo not shown) [compound 67, 5-[3-[4-(3,4-dichlorophenyl)piperazin-1-yl]-3-oxo-propyl]-5-methyl-imidazolidine-2,4-dione], the IC50 at human MMP13 was over 3500 nM; at human ADAMTS-5, 152 nM; at human TACE, over 4000 nM.
For `O=C1NC(=O)C(CCC(=O)N2CCN(c3ccccc3)CC2)(c2cccnc2)N1` (stereo not shown) [compound 68, 5-[3-oxo-3-(4-phenylpiperazin-1-yl)propyl]-5-(3-pyridyl)imidazolidine-2,4-dione], the IC50 at rnADAMTS-5 (1-564-6H) was determined as 200 nM; on human ADAMTS-5, 169 nM.
Taken in the same sequence, the figures for `Cc1cccc(N2CCN(C(=O)CCC3(c4cccnc4)NC(=O)NC3=O)CC2)c1C` (stereo not shown) [compound 69, 5-[3-[4-(2,3-dimethylphenyl)piperazin-1-yl]-3-oxo-propyl]-5-(3-pyridyl)imidazolidine-2,4-dione] were 185 nM and 178 nM.
The matching figures for `Cc1ccc(Cl)cc1N1CCN(C(=O)CCC2(C3CCC3)NC(=O)NC2=O)CC1` (stereo not shown) [compound 71, 5-[3-[4-(5-chloro-2-methyl-phenyl)piperazin-1-yl]-3-oxo-propyl]-5-cyclobutyl-imidazolidine-2,4-dione]: 198 nM and 200 nM.
Taken in the same sequence, the figures for `O=C1NC(=O)C(CCC(=O)N2CCN(c3cccc(Cl)c3)CC2)(C2CCCCC2)N1` (stereo not shown) [compound 72, 5-[3-[4-(3-chlorophenyl)piperazin-1-yl]-3-oxo-propyl]-5-cyclohexyl-imidazolidine-2,4-dione] were 282 nM and 264 nM.
Turning to `Cc1ccc(C2(CCC(=O)N3CCN(c4cc(Cl)ccc4C)CC3)NC(=O)NC2=O)cc1` (stereo not shown) [compound 77, 5-[3-[4-(5-chloro-2-methyl-phenyl)piperazin-1-yl]-3-oxo-propyl]-5-(p-tolyl)imidazolidine-2,4-dione], the IC50 on rnADAMTS-5 (1-564-6H) is 169 nM; at human ADAMTS-5 it was 107 nM.
Taken in the same sequence, the figures for `Cc1ccccc1N1CCN(C(=O)CCC2(c3ccc(OCCN(C)C)cc3)NC(=O)NC2=O)CC1` (stereo not shown) [compound 81, 5-[4-(2-dimethylaminoethyloxy)phenyl]-5-[3-[4-(o-toyl)piperazin-1-yl]-3-oxo-propyl]imidazolidine-2,4-dione] were 827 nM and 681 nM.
The matching figures for `Cc1ccccc1N1CCN(C(=O)CCC2(c3ccc(CN(C)C)cc3)NC(=O)NC2=O)CC1` (stereo not shown) [compound 82, 5-[4-(dimethylaminomethyl)phenyl]-5-[3-[4-(o-toly)piperazin-1-yl]-3-oxo-propyl]imidazolidine-2,4-dione]: 2090 nM and 1740 nM.
On to `CC1(CCC(=O)N2CCN(c3cncc(F)c3)CC2)NC(=O)NC1=O` (stereo not shown) [compound 84, 5-[3-[4-(5-fluoro-3-pyridyl)piperazin-1-yl]-3-oxo-propyl]-5-methyl-imidazolidine-2,4-dione], for which the half-maximal inhibitory concentration (IC50) on rnADAMTS-5 (1-564-6H) was determined as 637 nM; on human ADAMTS-5, 815 nM.
The matching figures for `Cc1cccc(N2CCN(C(=O)CCC3(c4ccccn4)NC(=O)NC3=O)CC2)c1C` (stereo not shown) [compound 101, 5-[3-[4-(2,3-dimethylphenyl)piperazin-1-yl]-3-oxo-propyl]-5-(2-pyridyl)imidazolidine-2,4-dione]: 165 nM and 154 nM.
Taken in the same sequence, the figures for `Cc1ccc(Cl)cc1N1CCN(C(=O)CCC2(C(C)(C)C)NC(=O)NC2=O)CC1` (stereo not shown) [compound 108, 5-tert-butyl-5-[3-[4-(5-chloro-2-methyl-phenyl)piperazin-1-yl]-3-oxo-propyl]imidazolidine-2,4-dione] were 410 nM and 320 nM.
Taken in the same sequence, the figures for `Cc1ccc(Cl)cc1N1CCN(C(=O)CCC2(C3CCCC3)NC(=O)NC2=O)CC1` (stereo not shown) [compound 110, 5-[3-[4-(5-chloro-2-methyl-phenyl)piperazin-1-yl]-3-oxo-propyl]-5-cyclopentyl-imidazolidine-2,4-dione] were 299 nM and 297 nM.
With `CC1(CCC(=O)N2CCN(c3cc(F)cc(Cl)c3)CC2)NC(=O)NC1=O` (stereo not shown) [compound 117, 5-[3-[4-(3-chloro-5-fluoro-phenyl)piperazin-1-yl]-3-oxo-propyl]-5-methyl-imidazolidine-2,4-dione], the figures for the IC50 at human MMP13, at human ADAMTS-5 and on human TACE were over 4000 nM, 211 nM and over 4000 nM, respectively.
For the compound `COc1cccc(C2(CCC(=O)N3CCN(c4cccc(Cl)c4)CC3)NC(=O)NC2=O)c1` (stereo not shown) [compound 123, 5-[3-[4-(3-chlorophenyl)piperazin-1-yl]-3-oxo-propyl]-5-(3-methoxyphenyl)imidazolidine-2,4-dione], the values for the IC50 at human MMP13, at human ADAMTS-5 and at human TACE were 919 nM, 95 nM and 1640 nM, respectively.
The matching figures for `N#Cc1ccc(C2(CCC(=O)N3CCN(c4cccc(Cl)c4)CC3)NC(=O)NC2=O)cc1` (stereo not shown) [compound 125, 4-[4-[3-[4-(3-chlorophenyl)piperazin-1-yl]-3-oxo-propyl]-2,5-dioxo-imidazolidin-4-yl]benzonitrile]: 2120 nM, 53 nM and 1800 nM.
For the compound `CC1CN(C(=O)CCC2(c3cccnc3)NC(=O)NC2=O)CCN1c1ccc(Cl)cc1` (stereo not shown) [compound 126, 5-[3-[4-(4-chlorophenyl)-3-methyl-piperazin-1-yl]-3-oxo-propyl]-5-(3-pyridyl)imidazolidine-2,4-dione], the values for the IC50 at human MMP13, on human ADAMTS-5 and at human TACE were over 4000 nM, 106 nM and over 4000 nM, respectively.
Take `C[C@@H]1CN(C(=O)CCC2(C3CC3)NC(=O)NC2=O)CCN1c1ccccc1` (stereo partly drawn) [compound 128, 5-cyclopropyl-5-[3-[(3R)-3-methyl-4-phenyl-piperazin-1-yl]-3-oxo-propyl]imidazolidine-2,4-dione]: the IC50 at human MMP13 was over 20000 nM; on human ADAMTS-5 it was 1170 nM; at human TACE, over 20000 nM.
On to `Cc1ccc(F)cc1N1CCN(C(=O)CCC2(C3CC3)NC(=O)NC2=O)CC1C` (stereo not shown) [compound 129, 5-cyclopropyl-5-[3-[4-(5-fluoro-2-methyl-phenyl)-3-methyl-piperazin-1-yl]-3-oxo-propyl]imidazolidine-2,4-dione], for which the half-maximal inhibitory concentration (IC50) at human MMP13 is over 20000 nM; at human ADAMTS-5, 150 nM; on human TACE, over 4000 nM.
Regarding `CC1CN(C(=O)CCC2(C3CC3)NC(=O)NC2=O)CCN1c1cc(Cl)cc(Cl)c1` (stereo not shown) [compound 130, 5-cyclopropyl-5-[3-[4-(3,5-dichlorophenyl)-3-methyl-piperazin-1-yl]-3-oxo-propyl]imidazolidine-2,4-dione], the half-maximal inhibitory concentration (IC50) at human MMP13 was over 20000 nM; on human ADAMTS-5, 126 nM; at human TACE it was over 4000 nM.
In the case of `COc1ccc(Cl)cc1C1(CCC(=O)N2CCN(c3cccc(Cl)c3)CC2)NC(=O)NC1=O` (stereo not shown) [compound 132, 5-(5-chloro-2-methoxy-phenyl)-5-[3-[4-(3-chlorophenyl)piperazin-1-yl]-3-oxo-propyl]imidazolidine-2,4-dione], the IC50 at human MMP13 is 3290 nM; at human ADAMTS-5 it was 37 nM; on human TACE, 348 nM.
Taken in the same sequence, the figures for `COc1ccc(Cl)cc1C1(CCC(=O)N2CCN(c3cc(Cl)ccc3C)CC2)NC(=O)NC1=O` (stereo not shown) [compound 133, 5-(5-chloro-2-methoxy-phenyl)-5-[3-[4-(5-chloro-2-methyl-phenyl)piperazin-1-yl]-3-oxo-propyl]imidazolidine-2,4-dione] were over 20000 nM, 108 nM and 195 nM.
Taken in the same sequence, the figures for `C[C@@H]1CN(C(=O)CCC2(c3cccnc3)NC(=O)NC2=O)CCN1c1ccccc1` (stereo partly drawn) [compound 134, 5-[3-[(3R)-3-methyl-4-phenyl-piperazin-1-yl]-3-oxo-propyl]-5-(3-pyridyl)imidazolidine-2,4-dione] were over 20000 nM, 1870 nM and over 20000 nM.
The matching figures for `Cc1c(Cl)cc(Cl)cc1N1CCN(C(=O)CCC2(C)NC(=O)NC2=O)CC1` (stereo not shown) [compound 139, 5-[3-[4-(3,5-dichloro-2-methyl-phenyl)piperazin-1-yl]-3-oxo-propyl]-5-methyl-imidazolidine-2,4-dione]: over 20000 nM, 231 nM and 1320 nM.
